In BindingDB's records for doi:10.1016/j.bmc.2015.04.057 (Beni-Suef University, 2015):

Assay: Antiinflammatory activity in mouse RAW264.7 cells assessed as inhibition of LPS-induced iNOS activity incubated for 30 mins prior to LPS challenge measured after 24 hrs by Griess assay

Row | Structure (SMILES) | IC50
1 | O=c1sc2ccccc2n1CCCN1CCN(CCCn2c(=O)sc3ccccc32)CC1 | 4.62 µM
2 | O=c1oc2ccccc2n1CCCCCN1CCN(CCCCCn2c(=O)oc3ccccc32)CC1 | 4.43 µM
3 | O=c1sc2ccccc2n1CCCCCN1CCN(CCCCCn2c(=O)sc3ccccc32)CC1 | 0.41 µM
4 | O=c1oc2ccccc2n1CCCCCCN1CCN(CCCCCCn2c(=O)oc3ccccc32)CC1 | 4.22 µM
5 | O=c1sc2ccccc2n1CCCCCCN1CCN(CCCCCCn2c(=O)sc3ccccc32)CC1 | 0.28 µM
6 | O=c1oc2ccccc2n1CCCCCN1CCN(CCn2c(=O)oc3ccccc32)CC1 | 4.98 µM
7 | O=c1sc2ccccc2n1CCCCCN1CCN(CCn2c(=O)sc3ccccc32)CC1 | 4.51 µM
8 | O=c1oc2ccccc2n1CCCCCCN1CCN(CCn2c(=O)oc3ccccc32)CC1 | 4.66 µM
9 | O=c1sc2ccccc2n1CCCCCCN1CCN(CCn2c(=O)sc3ccccc32)CC1 | 3.43 µM
10 | O=c1sc2ccccc2n1CCCCN1CCN(CCCn2c(=O)sc3ccccc32)CC1 | 4.51 µM
11 | O=c1oc2ccccc2n1CCCCCN1CCN(CCCn2c(=O)oc3ccccc32)CC1 | 4.86 µM
12 | O=c1sc2ccccc2n1CCCCCN1CCN(CCCn2c(=O)sc3ccccc32)CC1 | 2.55 µM
13 | O=c1oc2ccccc2n1CCCCCCN1CCN(CCCn2c(=O)oc3ccccc32)CC1 | 4.5 µM
14 | O=c1sc2ccccc2n1CCCCCCN1CCN(CCCn2c(=O)sc3ccccc32)CC1 | 2.57 µM
15 | O=c1oc2ccccc2n1CCCCCN1CCN(CCCCn2c(=O)oc3ccccc32)CC1 | 4.54 µM
16 | O=c1oc2ccccc2n1CCCCCCN1CCN(CCCCn2c(=O)oc3ccccc32)CC1 | 1.77 µM
17 | O=c1sc2ccccc2n1CCCCCCN1CCN(CCCCn2c(=O)sc3ccccc32)CC1 | 0.51 µM
18 | O=c1oc2ccccc2n1CCCCCCN1CCN(CCCCCn2c(=O)oc3ccccc32)CC1 | 2.9 µM
19 | O=c1sc2ccccc2n1CCCCCCN1CCN(CCCCCn2c(=O)sc3ccccc32)CC1 | 0.29 µM
20 | c1ccc2oc(SCCCCN3CCN(CCCCSc4nc5ccccc5o4)CC3)nc2c1 | 1.12 µM
21 | c1ccc2sc(SCCCCN3CCN(CCCCSc4nc5ccccc5s4)CC3)nc2c1 | 0.41 µM
